# Experimental data taken from patent US12435308B2, “Immunomodulation by amniotic fluid mesenchymal stem cells” (Amniotics AB, priority 2020, dated 2025).
# How the values were obtained:
# [1] = test system: human PBMCs activated with anti-CD3/anti-CD28; test: PBMC:MSC co-culture ex vivo assay, FACS analysis (CFSE proliferation)
# Procedure: (§1) For ex vivo analysis, freshly isolated human PBMCs, pooled from three donors, were activated with anti-CD3/anti-CD28 at 10 μg/ml and 5 μg/ml respectively in presence of MSCs ex vivo for 24-72 hours. Following activation, cells were analyzed for effects on cellular composition and cell proliferation using CFSE. In addition, supernatants were analyzed for cytokine levels using Luminex.
# (§2) In this example, Peripheral Blood Mononuclear Cells (PBMCs) were isolated from leucocyte concentrate from three different donors (acquired from Blodcentralen, Lunds Universitetssjukhus, Lund, Sweden) through gradient centrifugation using Ficoll. Red blood cells (RBCs) were lysed using lysis buffer (3 min, RT), cells were washed and the isolated PBMCs were pooled. Cell concentration was determined using a Scepter cell counter (Millipore Merck, MA, USA). Cells were diluted to 1×10^7 cells/ml in PBS. Pooled PBMCs were split into 2 different tubes. Pool one was stained with CFSE at 5 μM for 5 minutes (dark, RT). CFSE stained cells were washed with an equal volume of FBS to stop the reaction and washed again with PBS. Pool 2 was left in PBS.
# (§3) All cells (PBMCs and MSCs) were diluted in two different cell culture media (M3 and M4) at 2*10^6 cells/ml. Media was supplemented with anti-CD28 at 5 μg/ml. Cells were added to anti-CD3 (10 μg/ml) coated U bottom cell culture plates according to layout below, 200 μl/well in different PBMC:MSC ratios (1:10, 1:5, 1:2.5, 1:0 and 0:1).
# (§4) Included were also controls (stimulated and unstimulated PBMCs) and two reference drugs, e.g., cyclosporine (CsA) and Prednisolone. When plating controls, cells were spun down and diluted in media 3 or 4 at 4*10^6 cells/ml. 100 μl PBMCs were added per well. CsA was added at a final concentration of 10 μg/ml and Prednisolone was added at a final concentration of 125 nM. Medium was added to unstimulated control wells. Control cells (AD-MSC) were also analyzed. Cells were incubated for 24-72 hours at 37° C., 5% CO2.
# To continue with this example, after 72 hours of incubation, CFSE stained cells were stained with CD4, CD8, CD80, CD206 and CD163. Briefly, cells were transferred to V bottom plates, centrifuged at 360×g for 2 min. Cells were washed in PBS, centrifuged at 360×g for 2 min at 4° C. Supernatant was flicked off and surface markers were added. Cells were incubated at +4° C. for 20 minutes. After incubation, cells were washed 1× in PBS, centrifuged at 360×g for 2 min at 4° C. Cells were resuspended in PBS and analyzed using flow cytometry. Compensation was performed using beads—AbC Total Compensation capture beads and negative beads. Since compensation was done using beads, FSC and SSC were changed before analyzing samples and adjusted to suit cells.
# The inhibitory effect was calculated according to the two formulas below: […]
# [2] = test system: human PBMCs activated with anti-CD3/anti-CD28; test: PBMC:MSC co-culture ex vivo assay, FACS analysis (cell composition)
# Procedure: as §1, §2, §3, §4
# Following 24 hours of incubation, cells in FACS/Luminex plates were stained with CD73, CD4, CD8, CD80, CD206, CD163 and PD-1. Briefly, cells were transferred to V bottom plates and centrifuged at 360×g for 2 min. Supernatant was transferred to a storage plate and put in −20° C. until analysis using Luminex. Cells were washed in PBS, centrifuged at 360×g for 2 min at 4° C. Supernatant was flicked off and surface markers were added. Cells were incubated at +4° C. for 20 minutes (dark). After incubation, cells were washed 1× in PBS, centrifuged at 360×g for 2 min at 4° C. Cells were resuspended in PBS and analyzed using the Attune Nxt flow cytometer. Compensation was performed using beads—AbC Total Compensation capture beads and negative beads. Since compensation was done using beads, FSC and SSC were changed before analyzing samples and adjusted to suit cells.
# [3] = CFSE plates, 72 hours of incubation
smiles,measurement,setting,value
C[C@]12C=CC(=O)C=C1CC[C@@H]1[C@@H]2[C@@H](O)C[C@@]2(C)[C@H]1CC[C@]2(O)C(=O)CO [Prednisolone],effect on cytotoxic T cells,[1],no effect
same,effect on M1 expression level,[1]; [3],no effect
same,effect on M2 expression level,[1]; [3],no effect
same,effect on T helper cells,[1]; [3],no effect
same,% cytotoxic T cells (CD8+ lymphocytes),[2],lower levels
same,expression level of CD73+M1,[2]; 24 hours of incubation,lower expression level
same,expression level of CD73+M2,[2]; 24 hours of incubation,lower expression level
same,% T helper cells (CD4+ lymphocytes),"[2]; 24 hours of incubation, versus control",higher levels
same,macrophage polarization (shift towards M2),"[2]; assay controls, cell composition",shift towards M2
